Assay results as given in the METLIN SMRT retention time set (Domingo-Almenara et al. 2019).

Test: gradient 5% acetonitrile 3 min, to 50% in 2 min, to 85% in 15 min, held 3 min, 100 µL/min
Details: column: Zorbax Extend-C18 2.1 x 50 mm; eluents: water / acetonitrile, 0.1% formic acid
How it was run: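 Retention times of pure standards were taken from adduct peaks that were selected by computer and manually inspected. Over 3 months, mixtures of ~100 molecules were run by HPLC–quadrupole time-of-flight mass spectrometry in positive and negative ionization mode. The Zorbax Extend-C18 column (2.1 × 50 mm, 1.8 μm) ran at 100 μL/min in water and acetonitrile, each containing 0.1% formic acid, with 40 μL dead volume and 900 μL dwell volume.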

| Structure (SMILES) | RP-LC retention time |
| --- | --- |
| Cc1ccc(Cn2ccn3nc(-c4ccccc4)c(CO)c3c2=O)cc1 | 964 s |
| COCC(=O)NC1CCC12CCN(C(=O)c1cccs1)CC2 (configuration not stated) | 669 s |
| COC(=O)C1=C(C(=O)OC)SC2(S1)C(C(=O)OC)=C(C(=O)OC)Sc1c2ssc1=O | 977 s |
| O=C(Nc1ccc(F)cc1)C1CCCN(c2nc3ccccc3nc2C(F)(F)F)C1 (configuration not stated) | 1190 s |
| COC(=O)C1=CN(c2ccccc2)c2cc(F)c(F)cc2S1(=O)=O | 858 s |
| CCC(C)(C)C(=O)N1CC(c2nc(-c3ccccc3)no2)C2(CCOCC2)C1 (configuration not stated) | 553 s |
| Cc1ccc(Nc2c(-c3cccc(Br)c3)nc3c(C)cccn23)cc1 | 843 s |
| CCCC(=O)Nc1ccc2nc(N3CCN(CC(=O)N4CCCCCC4)CC3)cc(C(=O)O)c2c1 | 587 s |
| COc1ccc(-c2nnc(-c3cccnc3NCc3ccc(N(C)C)cc3)o2)cc1 | 873 s |
| CC1CN=C2C=C(N3CCN(C(=O)Nc4ccc(Cl)cc4F)CC3)N=CN21 (configuration not stated) | 630 s |
| NC(=O)OCCCc1ccccc1 | 817 s |
| Cc1cccc(NS(=O)(=O)c2cc(-c3[nH]ncc3C(=O)N3CCCC3)oc2C)c1 | 716 s |
| COCCC(=O)Nc1ccc(-c2nc(Cn3nc(C)cc3C)c(C)o2)cc1 | 729 s |
| O=C(Cc1ccc2ccccc2c1)Nc1nnc(-c2ccno2)o1 | 558 s |
| CCOC(=O)c1oc2ccc(S(=O)(=O)N3CCC(c4noc(C5CC5)n4)C3)cc2c1C (configuration not stated) | 1000 s |
| Cc1sc(NC(=O)c2cccs2)nc1-c1ccc2c(c1)NC(=O)CO2 | 842 s |
| O=C(O)c1ccccc1C(=O)Nc1ccccc1[N+](=O)[O-] | 782 s |
| CCCc1cc(NCc2ccccn2)n2ncc(-c3ccccc3)c2n1 | 894 s |
| Cc1cc2c(c(=O)n(-c3ccccc3)c(=O)n2CC(=O)Nc2cccc(C(F)(F)F)c2)n1C | 904 s |

| Structure (SMILES) | RP-LC retention time |
| --- | --- |
| CCc1noc(NC(C)=O)c1-c1ccc(OC)c(S(=O)(=O)Nc2ccc(F)c(F)c2)c1 | 792 s |
| CC1CCN(C(=O)c2cccn2Cc2noc(-c3ccc(Cl)cc3)n2)CC1 | 1200 s |
| Cc1ccc(-c2nnc(-c3cccc(S(=O)(=O)NCc4ccco4)c3)o2)cc1 | 968 s |
| CC(C)C(=O)Nc1ccc(-n2cnc(C(=O)NCc3ccc(F)cc3F)c2)nc1 | 773 s |
| COCc1nnc(-c2cc(C)cc(C)c2)o1 | 857 s |
| Cc1cc2c(=O)n(CC(=O)Nc3ccc(Br)cc3F)ccc2s1 | 869 s |
| CC(C)CN1CCCCc2cc(C(=O)NC3CCS(=O)(=O)C3)sc21 (configuration not stated) | 941 s |
| O=C(Nc1cnc(-c2cccnc2)nc1)C1CCCCC1 | 681 s |
| Cc1cc(C)cc(C(=O)N2CCCC(C(=O)NC3CC3)C2)c1 (configuration not stated) | 714 s |
| CCc1cc(C(=O)Nc2ccc(N3CCOCC3)cc2)nc2cc(-c3ccco3)nn12 | 683 s |
| O=c1cc(N2CCOCC2)oc2c1ccc1ccccc12 | 882 s |
| O=C(Cc1nc(-c2cccnc2)n[nH]1)NCCc1ccccc1 | 588 s |
| O=C(NC1CC1)[C@@H]1C[C@H](Oc2cccnc2)CN1C(=O)c1ccc2ncccc2c1 | 528 s |
| Cc1nn(CC(=O)NCCCN2CCCC2=O)c(=O)c2cc(-c3ccccc3)nn12 | 684 s |
| COc1ccc(OC)c(NC(=O)Cc2csc3nc(-c4cccc(Br)c4)cn23)c1 | 1010 s |
| O=C(CN1C(=O)CCCc2cc(S(=O)(=O)N3CCCC3)ccc21)NC1CCCCCC1 | 848 s |
| COCCCNC(=O)C1c2ccccc2C(=O)N1Cc1ccccc1 (configuration not stated) | 704 s |
| O=C(C1CCCCC1)N1CCN(c2cc(-c3ccc(Cl)cc3)[nH]n2)CC1 | 910 s |
